Measured values from patent US20230331604A1, “METHOD FOR THE ELECTROCHEMICAL CONTROL OF THE PHOTOSYNTHETIC METABOLISM OF PURPLE NON-SULFUR BACTERIA AND REDOX MEDIATORS THEREOF” (Zuccato HC S.r.l., priority 2020, published 2023).

What was measured:
[1] = equilibrium potential of the redox mediator; format: physicochemical; settings: vs SCE reference electrode
Description: This is enabled by the use of suitable fat-soluble redox mediators ([2], [3]) capable of permeabilizing the bacterial membrane and entering the cytoplasm, in order to alter the oxidation state of the disulfide bond present in type A thioredoxins, as well as by appropriate light irradiation.

[2] = tested on: Rhodobacter sphaeroides (ATCC 55304); test: bacteriochlorophyll synthesized by Rhodobacter sphaeroides under electrochemical control vs aerobic growth (absorption spectra); format: cell-based; settings: 50 nM safranin, acetone/methanol extract, absorbance normalized to 660 nm
Description: A homemade potentiostat was used as an external source of free energy, capable of providing a current of up to 100 mA and keeping the potential constant within the range of −2 V÷+2 V).
The materials of the electrodes used are: • Working electrode: stainless steel grid with 1 mm mesh spacing. • Counter electrode: graphite bars (0.8 cm in diameter, 30 cm long) • Reference electrode: (SCE)
Safranin T, molecular mass equal to 350.85. (Fluka) at a concentration equal to 50 nM, was used as redox mediator in the cell.
The solution inside the fermenter/reactor was kept under mild stirring to facilitate the recirculation of the redox mediator molecules.

For `Cc1cc2nc3cc(C)c(N)cc3[n+](-c3ccccc3)c2cc1N.[Cl-]` [Safranin T, safranin T], the equilibrium potential [1] was “about −540 mV” and the “intensity of bacteriochlorophyll absorption bands compared to the corresponding aerobic population” value [2] was “almost tripled”.
